US20180084779A1, “PLANT DISEASE CONTROL AGENT AND USE THEREOF” (NIHON NOHYAKU CO., LTD., priority 2015, published 2018)

Assays:
[1] = tested on: Septoria tritici, KUK-1-21 Strain; assay: Test for wheat leaf blotch, fluoroimide and/or DMI agent sprayed on wheat pots, lesion area index 17 days after inoculation; format: in vivo; conditions: wheat, 17 days after inoculation
Procedure: (§1) Test for Wheat Leaf Blotch (Septoria tritici, KUK-1-21 Strain):
(§2) Agrochemical liquids containing a predetermined concentration of fluoroimide and/or a predetermined concentration of each DMI agent were applied to wheat in a predetermined amount with a spray gun. After air drying, a suspension of fungus spore of Septoria tritici adjusted to 1.0×10^7 spores/ml was inoculated by spraying. After that, the wheat pots were kept in a growth chamber under a light condition of at 15° C. 100% RH to encourage the development of the disease. Seventeen days after the inoculation, the lesion area index (0-10) was determined for the evaluation of the control effect.
(§3) Control effect (%)=[(Disease index of no treatment area−Disease index of treatment area)/Disease index of no treatment area]×100 [Formula 1]
(§4) The expected effect (expected value E) by using an active ingredient in combination with each of other active ingredients in the above tests was determined by the following Colby formula (see COLBY, S. R., Weeds 15: 20-22 (1967)).
(§5) E(Expected effect)=(X+Y)−(X×Y/100) [Formula 2]
X=controlling effect of fungicide A alone
Y=controlling effect of fungicide B alone

[2] = tested on: Septoria tritici, KUK-1-21 Strain; assay: Test for wheat leaf blotch, fluoroimide and/or SDHI agent sprayed on wheat pots, lesion area index 21 days after inoculation; format: in vivo; conditions: wheat, 21 days after inoculation
Procedure: as §3, §4, §5, §1
as §2, with “SDHI” for “DMI”, “Twenty-one” for “Seventeen”, “set and” for “determined for”, “controlling effects and expected values are examined in” for “evaluation of”, “same manner as Example 1.” for “control effect.”

## O=C1C(Cl)=C(Cl)C(=O)N1c1ccc(F)cc1 [fluoroimide]
[1]; fluoroimide alone 50 ppm
  Controlling Effect as single agent: 25%
[1]; fluoroimide alone 100 ppm
  Controlling Effect as single agent: 50%
[2]; fluoroimide alone 50 ppm
  Controlling Effect as single agent: 5%
[2]; fluoroimide alone 100 ppm
  Controlling Effect as single agent: 25%
